Laboratory results published in patent US7612064B2, “Sulfopyrroles” (Takeda Pharmaceutical Company Limited, priority 2003, dated 2009).
pIC50: −log10 of the molar value.

Columns and labels:
MRC5 = test: MTS proliferation assay; format: cell-based; conditions: MRC5, 72 h
In short: (§1)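 Viability read-out is MTS absorbance at 492 nm after 3 h reagent incubation. It follows 72 h culture-condition treatment at four final concentrations (10, 3, 1, 0.3 μM), compounds delivered in medium holding max 5% DMSO.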

Jily = test: MTS proliferation assay; format: cell-based; conditions: 72 h
In short: as §1

HeLa = test: MTS proliferation assay; format: cell-based, human; conditions: 72 h
In short: as §1

Jurkat = test: MTS proliferation assay; format: cell-based, human; conditions: 72 h
In short: as §1

[1] = Hoechst 33342 nuclear staining; format: cell-based; conditions: for Hoechst 33342 nuclear staining score, H460: H460 cells; for Hoechst 33342 nuclear staining score, HeLa: HeLa cells; for Hoechst 33342 nuclear staining score, Jily: Jily cells; for Hoechst 33342 nuclear staining score, Jurkat: Jurkat cells; for Hoechst 33342 nuclear staining score, MRC5: MRC5 cells; as to Hoechst 33342 nuclear staining score, PBLs: key: 0: no activity; 1: weak activity comprising less than 50% of the cells; 2: strong activity comprising more than 50% of the cells;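 as to all read-outs here: apoptotic nuclei scored 0 none 1 weak under 50% of cells 2 strong over 50% of cells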
In short: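 Cells were plated in 96 well tissue culture plates in 80 μl complete medium, with 3-5*10^3 cells per well for adherent lines and 8-10*10^3 for suspension lines. Adherent cells spread for 24 h before treatment, while suspension cells were treated right after seeding. Compounds were added in 20 μl complete medium containing max 5% DMSO.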

SMILES	pIC50 (MRC5)	pIC50 (Jily)	pIC50 (HeLa)	pIC50 (Jurkat)	Hoechst 33342 nuclear staining score, H460 ([1]; conc 0.1)	Hoechst 33342 nuclear staining score, H460 ([1]; conc 0.3)	Hoechst 33342 nuclear staining score, H460 ([1]; conc 1)	Hoechst 33342 nuclear staining score, H460 ([1]; conc 3)	Hoechst 33342 nuclear staining score, HeLa ([1]; conc 0.1)	Hoechst 33342 nuclear staining score, HeLa ([1]; conc 0.3)	Hoechst 33342 nuclear staining score, HeLa ([1]; conc 1)	Hoechst 33342 nuclear staining score, HeLa ([1]; conc 3)	Hoechst 33342 nuclear staining score, Jily ([1]; conc 0.1)	Hoechst 33342 nuclear staining score, Jily ([1]; conc 0.3)	Hoechst 33342 nuclear staining score, Jily ([1]; conc 1)	Hoechst 33342 nuclear staining score, Jily ([1]; conc 3)	Hoechst 33342 nuclear staining score, Jurkat ([1]; conc 0.1)	Hoechst 33342 nuclear staining score, Jurkat ([1]; conc 0.3)	Hoechst 33342 nuclear staining score, Jurkat ([1]; conc 1)	Hoechst 33342 nuclear staining score, Jurkat ([1]; conc 3)	also measured
COc1ccc(S(=O)(=O)n2cc(-c3cncc(C(N)=O)c3)cc2-c2ccccc2OC)cc1 [Example 107]	< 6.00	> 6.00	< 6.00	> 6.00	0	0	1 (weak activity comprising less than 50% of the cells)	2 (strong activity comprising more than 50% of the cells)	0	0	0	2 (strong activity comprising more than 50% of the cells)	0	0	2 (strong activity comprising more than 50% of the cells)	2 (strong activity comprising more than 50% of the cells)	0	0	2 (strong activity comprising more than 50% of the cells)	2 (strong activity comprising more than 50% of the cells)	Hoechst 33342 nuclear staining score, MRC5 ([1]; conc 0.1): 0; Hoechst 33342 nuclear staining score, MRC5 ([1]; conc 0.3): 0; Hoechst 33342 nuclear staining score, MRC5 ([1]; conc 1): 0; Hoechst 33342 nuclear staining score, MRC5 ([1]; conc 3): 0; Hoechst 33342 nuclear staining score, PBLs ([1]; conc 0.1): 0; Hoechst 33342 nuclear staining score, PBLs ([1]; conc 0.3): 0; Hoechst 33342 nuclear staining score, PBLs ([1]; conc 1): 0; Hoechst 33342 nuclear staining score, PBLs ([1]; conc 3): 0
COc1cc(-c2cc(-c3cccnc3)cn2S(=O)(=O)c2ccc(C(C)(C)C)cc2)cc(OC)c1OC [Example 83]	< 6.00	< 6.00	< 6.00	< 6.00	0	0	0	0	0	0	0	0	0	0	0	0	0	0	0	0	Hoechst 33342 nuclear staining score, MRC5 ([1]; conc 0.1): 0; Hoechst 33342 nuclear staining score, MRC5 ([1]; conc 0.3): 0; Hoechst 33342 nuclear staining score, MRC5 ([1]; conc 1): 0; Hoechst 33342 nuclear staining score, MRC5 ([1]; conc 3): 0; Hoechst 33342 nuclear staining score, PBLs ([1]; conc 0.1): 0; Hoechst 33342 nuclear staining score, PBLs ([1]; conc 0.3): 0; Hoechst 33342 nuclear staining score, PBLs ([1]; conc 1): 0; Hoechst 33342 nuclear staining score, PBLs ([1]; conc 3): 0
COc1cc(-c2cc(-c3cccnc3)cn2S(=O)(=O)c2ccc(N)cc2)cc(OC)c1OC [Example 93]	< 6.00	< 6.00	< 6.00	< 6.00	0	0	0	0	0	0	0	0	0	0	0	0	0	0	0	0	Hoechst 33342 nuclear staining score, MRC5 ([1]; conc 0.1): 0; Hoechst 33342 nuclear staining score, MRC5 ([1]; conc 0.3): 0; Hoechst 33342 nuclear staining score, MRC5 ([1]; conc 1): 0; Hoechst 33342 nuclear staining score, MRC5 ([1]; conc 3): 0; Hoechst 33342 nuclear staining score, PBLs ([1]; conc 0.1): 0; Hoechst 33342 nuclear staining score, PBLs ([1]; conc 0.3): 0; Hoechst 33342 nuclear staining score, PBLs ([1]; conc 1): 0; Hoechst 33342 nuclear staining score, PBLs ([1]; conc 3): 0
COCCCNC(=O)c1cncc(-c2cc(-c3cc(OC)c(OC)c(OC)c3)n(S(=O)(=O)c3ccc(C)cc3)c2)c1.Cl [Example 65]	> 6.00	> 6.00	> 6.00	> 6.00	0	0	2 (strong activity comprising more than 50% of the cells)	2 (strong activity comprising more than 50% of the cells)	0	0	0	2 (strong activity comprising more than 50% of the cells)	0	0	2 (strong activity comprising more than 50% of the cells)	2 (strong activity comprising more than 50% of the cells)	0	0	2 (strong activity comprising more than 50% of the cells)	2 (strong activity comprising more than 50% of the cells)	Hoechst 33342 nuclear staining score, MRC5 ([1]; conc 0.1): 0; Hoechst 33342 nuclear staining score, MRC5 ([1]; conc 0.3): 0; Hoechst 33342 nuclear staining score, MRC5 ([1]; conc 1): 2 (strong activity comprising more than 50% of the cells); Hoechst 33342 nuclear staining score, MRC5 ([1]; conc 3): 2 (strong activity comprising more than 50% of the cells); Hoechst 33342 nuclear staining score, PBLs ([1]; conc 0.1): 0; Hoechst 33342 nuclear staining score, PBLs ([1]; conc 0.3): 0; Hoechst 33342 nuclear staining score, PBLs ([1]; conc 1): 0; Hoechst 33342 nuclear staining score, PBLs ([1]; conc 3): 0
COc1ccc(S(=O)(=O)n2cc(-c3ccc(N)nc3)cc2-c2cc(OC)ccc2OC)cc1 [Example 101]	> 6.00	> 6.70	> 6.00	> 6.70	0	2 (strong activity comprising more than 50% of the cells)	2 (strong activity comprising more than 50% of the cells)	2 (strong activity comprising more than 50% of the cells)	0	2 (strong activity comprising more than 50% of the cells)	2 (strong activity comprising more than 50% of the cells)	2 (strong activity comprising more than 50% of the cells)	0	2 (strong activity comprising more than 50% of the cells)	2 (strong activity comprising more than 50% of the cells)	2 (strong activity comprising more than 50% of the cells)	0	2 (strong activity comprising more than 50% of the cells)	2 (strong activity comprising more than 50% of the cells)	2 (strong activity comprising more than 50% of the cells)	Hoechst 33342 nuclear staining score, MRC5 ([1]; conc 0.1): 0; Hoechst 33342 nuclear staining score, MRC5 ([1]; conc 0.3): 2 (strong activity comprising more than 50% of the cells); Hoechst 33342 nuclear staining score, MRC5 ([1]; conc 1): 2 (strong activity comprising more than 50% of the cells); Hoechst 33342 nuclear staining score, MRC5 ([1]; conc 3): 2 (strong activity comprising more than 50% of the cells); Hoechst 33342 nuclear staining score, PBLs ([1]; conc 0.1): 0; Hoechst 33342 nuclear staining score, PBLs ([1]; conc 0.3): 0; Hoechst 33342 nuclear staining score, PBLs ([1]; conc 1): 0; Hoechst 33342 nuclear staining score, PBLs ([1]; conc 3): 0
